Where a name gives a salt, the structure may show the parent alone. Read-outs that look alike come from different tables or passages of the source.
Legend:
[1] = target: T1, CDK1/CycB (Homo sapiens, UniProt P06493); assay: CDK1/CycB kinase assay; type: biochemical; conditions: Table I
T1 construct: GST; purchased ProQinase GmbH, Freiburg; host or cells: baculovirus-infected insect cells (Sf9)
Procedure: Recombinant CDK1- and CycB-GST fusion proteins, purified from baculovirus-infected insect cells (Sf9), were purchased from ProQinase GmbH, Freiburg. Histone IIIS, which was used as a kinase substrate, is commercially available from the Sigma Company.
CDK1/CycB (200 ng/measuring point) was incubated for 15 minutes at 22° C. in the presence of various concentrations of test substances (0 μm, as well as within the range of 0.01-100 μm) in assay buffer [50 mmol of tris/HCl, pH 8.0, 10 mmol of MgCl2, 0.1 mmol of Na ortho-vanadate, 1.0 mmol of dithiothreitol, 0.5 μm of adenosine triphosphate (ATP), 10 μg/measuring point of histone IIIS, 0.2 μCi/measuring point of 33P-gamma ATP, 0.05% NP40, 12.5% dimethyl sulfoxide]. The reaction was stopped by adding EDTA solution (250 mmol, pH 8.0, 14 μl/measuring point).
From each reaction batch, 10 μl was applied to P30 filter strips (Wallac Company), and non-incorporated 33P-ATP was removed by three washing cycles of the filter strips for 10 minutes each in 0.5% phosphoric acid. After the filter strips were dried for 1 hour at 70° C., the filter strips were covered with scintillator strips (MeltiLex™ A, Wallac Company) and baked for one hour at 90° C. The amount of incorporated 33P (substrate phosphorylation) was determined by scintillation measurement in a gamma-radiation measuring device (Wallac).

[2] = system: H460; assay: Proliferation assay H460; type: cell-based; conditions: Homo sapiens, NCI-H460, 96 h; Table II; 4 days incubation, crystal violet
Text: (§1) Cultivated human tumor cells (MCF7, […] human breast cancer cells, relative to ATCC HTB22; NCI-H460, human non-small-cell lung cancer cells, ATCC HTB-177, HCT 116, human colon cancer cells, ATCC CCL-247; DU 145, hormone-independent human prostate cancer cells, ATCC HTB-81; MaTu-MDR, hormone-independent, multiple pharmaceutical agent-resistant human breast cancer cells, EPO-GmbH, Berlin) were flattened out at a density of about 5000 cells/measuring point, depending on growth rates of the respective cells in a 96-well multititer plate in 200 μl of the corresponding growth medium. After 24 hours, the cells of one plate (zero-point plate) were colored with crystal violet (see below), while the medium of the other plates was replaced by fresh culture medium (200 μl), to which the test substances were added at various concentrations (0 μmol, as well as in the range of 0.01-30 μmol; the final concentration of the solvent dimethyl sulfoxide was 0.5%). The cells were incubated for 4 days in the presence of test substances. The cell proliferation was determined by coloring the cells with crystal violet: the cells were fixed by adding 20 μl/measuring point of an 11% glutaric aldehyde solution for 15 minutes at room temperature. After three washing cycles of the fixed cells with water, the plates were dried at room temperature. The cells were colored by adding 100 μl/measuring point of a 0.1% crystal violet solution (pH was set at 3 by adding acetic acid). After three washing cycles of the colored cells with water, the plates were dried at room temperature. The dye was dissolved by adding 100 μl/measuring point of a 10% acetic acid solution. The extinction was determined by photometry at a wavelength of 595 nm. The change of cell growth, in percent, was calculated by standardization of the measured values to the extinction values of the zero-point plate (=0%) and the extinction of the untreated (0 μm) cells (=100%).

[3] = system: MaTu-ADR; assay: Proliferation assay MaTu-ADR; type: cell-based; conditions: Homo sapiens, 96 h; Table II; 4 days incubation, crystal violet; read-out: Proliferation IC50 MaTu-ADR
Text: as §1

[4] = system: MCF7; assay: Proliferation assay MCF7; type: cell-based; conditions: Homo sapiens, MCF7, 96 h, 4 days incubation, crystal violet
Text: as §1

[5] = target: T2, CDK2/CycE (Homo sapiens, UniProt P24941); assay: CDK2/CycE kinase assay; type: biochemical
T2 construct: GST; purchased ProQinase GmbH, Freiburg; host or cells: baculovirus-infected insect cells (Sf9)
Procedure: Recombinant CDK2- and CycE-GST-fusion proteins, purified from baculovirus-infected insect cells (Sf9), were purchased from ProQinase GmbH, Freiburg. Histone IIIS, which was used as a kinase substrate, was purchased from the Sigma Company.
The reaction was stopped by adding EDTA solution (250 mmol, pH 8.0, 14 μl/measuring point).
From each reaction batch, 10 μl was applied to P30 filter strips (Wallac Company), and non-incorporated ^33P-ATP was removed by subjecting the filter strips to three washing cycles for 10 minutes each in 0.5% phosphoric acid. After the filter strips were dried for one hour at 70° C., the filter strips were covered with scintillator strips (MeltiLex™ A, Wallac Company) and baked for one hour at 90° C. The amount of incorporated ^33P (substrate phosphorylation) was determined by scintillation measurement in a gamma-radiation measuring device (Wallac).

[6] = system: DU145; assay: Proliferation assay DU145; type: cell-based; conditions: Homo sapiens, DU-145, 96 h; Table II; 4 days incubation, crystal violet
Text: as §1

[7] = system: HCT116; assay: Proliferation assay HCT116; type: cell-based; conditions: Homo sapiens, HCT-116, 96 h; Table II; 4 days incubation, crystal violet
Text: as §1

[8] = target: T3, VEGF Receptor tyrosine kinase-2 (Homo sapiens, UniProt P35968); assay: VEGF Rezeptor-2 kinase assay; type: biochemical; conditions: Table I; read-out: VEGF-R2 IC50
T3 construct: GST; made in house; host or cells: baculovirus-infected insect cells (Sf9)
T3 sequence (P35968 20-1356): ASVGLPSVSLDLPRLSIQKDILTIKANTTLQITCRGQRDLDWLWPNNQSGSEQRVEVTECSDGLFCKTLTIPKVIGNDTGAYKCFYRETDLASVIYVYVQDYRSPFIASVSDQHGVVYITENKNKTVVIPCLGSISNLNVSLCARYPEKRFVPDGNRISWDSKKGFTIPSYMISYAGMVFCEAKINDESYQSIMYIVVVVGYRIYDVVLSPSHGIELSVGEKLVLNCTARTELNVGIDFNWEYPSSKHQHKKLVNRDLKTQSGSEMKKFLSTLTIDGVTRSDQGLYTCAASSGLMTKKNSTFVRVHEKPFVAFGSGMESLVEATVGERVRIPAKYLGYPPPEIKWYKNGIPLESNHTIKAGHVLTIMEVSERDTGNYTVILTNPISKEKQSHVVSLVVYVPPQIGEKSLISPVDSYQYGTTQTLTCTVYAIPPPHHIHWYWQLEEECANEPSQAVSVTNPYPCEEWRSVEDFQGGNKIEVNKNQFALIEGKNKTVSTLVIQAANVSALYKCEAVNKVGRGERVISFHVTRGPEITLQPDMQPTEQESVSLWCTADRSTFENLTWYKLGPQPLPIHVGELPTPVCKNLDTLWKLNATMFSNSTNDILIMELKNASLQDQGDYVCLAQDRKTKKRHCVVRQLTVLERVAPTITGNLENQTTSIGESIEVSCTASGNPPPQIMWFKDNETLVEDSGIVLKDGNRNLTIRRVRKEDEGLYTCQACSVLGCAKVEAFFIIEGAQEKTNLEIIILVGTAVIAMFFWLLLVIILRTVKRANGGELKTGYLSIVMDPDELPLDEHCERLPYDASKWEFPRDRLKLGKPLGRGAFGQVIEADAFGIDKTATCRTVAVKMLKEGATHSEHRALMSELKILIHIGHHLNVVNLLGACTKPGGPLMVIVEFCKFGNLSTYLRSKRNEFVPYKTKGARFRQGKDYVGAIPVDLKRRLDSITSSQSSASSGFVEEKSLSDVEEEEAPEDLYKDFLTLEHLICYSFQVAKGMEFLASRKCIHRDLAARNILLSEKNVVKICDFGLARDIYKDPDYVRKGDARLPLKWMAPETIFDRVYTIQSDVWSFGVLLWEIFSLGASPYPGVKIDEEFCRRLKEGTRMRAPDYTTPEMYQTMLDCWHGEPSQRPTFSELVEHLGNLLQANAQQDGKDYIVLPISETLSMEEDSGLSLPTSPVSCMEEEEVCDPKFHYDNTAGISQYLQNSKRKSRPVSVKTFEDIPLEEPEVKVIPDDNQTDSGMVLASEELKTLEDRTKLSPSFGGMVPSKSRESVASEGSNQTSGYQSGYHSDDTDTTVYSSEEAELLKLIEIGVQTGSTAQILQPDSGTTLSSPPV
Procedure: VEGF Rezeptor-2 Kinase Assay
Recombinant VEGF Receptor tyrosine kinase-2 was purified as GST-fusion protein from baculovirus-infected insect cells (Sf9). Poly-(Glu4Tyr), which was used as a kinase substrate, was purchased from the Sigma Company.
VEGF Receptor tyrosine kinase (90 ng/measuring point) was incubated for 10 minutes at 22° C. in the presence of various concentrations of test substances (0 μmol, as well as within the range of 0.001-30 μM) in 30 μl of assay buffer [40 mmol of Tris/HCl […], 10 mmol of MgCl2, 1 mmol of MnCl2, 3 μmol of Na orthovanadate, 1.0 mmol of dithiothreitol, 8 μmol of adenosine trisphosphate (ATP), 27 μg/measuring point of poly-(Glu4Tyr), 0.2 μCi/measuring point of ^33P-gamma ATP, 1% dimethyl sulfoxide]. The reaction was stopped by adding EDTA solution (250 mmol, pH 7.0, 10 μl/measuring point).
From each reaction batch, 10 μl was applied to P30 filter strips (Wallac Company), and non-incorporated 33P-ATP was removed by subjecting the filter strips to three washing cycles for 10 minutes each in 0.5% phosphoric acid. After the filter strips were dried for 1 hour at 70° C., the filter strips were covered with scintillator strips (MeltiLex™ A, Wallac Company) and baked on for 1 hour at 90° C. The amount of incorporated 33P (substrate phosphorylation) was determined by scintillation measurement in a gamma-radiation measuring device (Wallac).

[9] = Table II, read-out: Proliferation IC50 MCF7
[10] = Table I, read-out: CDK2/CycE IC50
[11] = Table II, read-out: Inhibition IC50 CDK2/CycE

T1 sequence (P06493 whole entry): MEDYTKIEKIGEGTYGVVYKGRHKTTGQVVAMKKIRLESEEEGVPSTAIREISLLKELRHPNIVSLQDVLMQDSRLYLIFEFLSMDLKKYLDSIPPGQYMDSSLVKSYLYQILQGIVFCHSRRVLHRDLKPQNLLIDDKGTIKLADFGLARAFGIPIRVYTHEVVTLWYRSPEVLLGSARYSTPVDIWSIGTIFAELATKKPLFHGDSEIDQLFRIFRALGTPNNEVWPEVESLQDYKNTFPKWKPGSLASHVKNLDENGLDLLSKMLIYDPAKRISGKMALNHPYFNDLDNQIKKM
T1 sequence (P14635 whole entry partner): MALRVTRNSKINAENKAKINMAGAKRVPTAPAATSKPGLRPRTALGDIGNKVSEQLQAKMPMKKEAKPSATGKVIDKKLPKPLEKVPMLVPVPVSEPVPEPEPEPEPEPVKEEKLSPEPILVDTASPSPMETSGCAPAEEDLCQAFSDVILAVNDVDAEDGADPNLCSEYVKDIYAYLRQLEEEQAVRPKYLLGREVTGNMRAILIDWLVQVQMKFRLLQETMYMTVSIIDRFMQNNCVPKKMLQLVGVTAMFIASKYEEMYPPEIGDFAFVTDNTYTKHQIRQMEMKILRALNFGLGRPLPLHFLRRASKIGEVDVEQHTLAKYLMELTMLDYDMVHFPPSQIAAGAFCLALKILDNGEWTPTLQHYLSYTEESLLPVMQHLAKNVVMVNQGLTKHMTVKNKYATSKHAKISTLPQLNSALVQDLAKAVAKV

SMILES | IC50 [1] | IC50 [2] | IC50 ([4]; Table I, read-out: MCF7 IC50) | IC50 [4, 9] | IC50 [5, 10] | IC50 [5, 11] | IC50 [6] | IC50 [7] | IC50 [8] | IC50 [3]
O=S1(=O)NCC(O)CNc2nc(ncc2Br)Nc2cccc1c2 (racemic) [Example 1.2, rac-1^5-Bromo-4-thia-2,5,9-triaza-1(2,4)-pyrimidina-3(1,3)-benzenacyclononaphan-7-ol-4,4-dioxide] | 40 nM |  | 2600 nM |  | 510 nM |  |  |  |  | 
O=S1(=O)NCCC(CO)Nc2nc(ncc2Br)Nc2cccc1c2 (single isomer, unassigned) [1.3 (+) Enantiomer] |  |  | 900 nM |  | 23 nM |  |  |  | 69 nM | 
O=S1(=O)NCCCOc2nc(ncc2Br)Nc2cccc1c2 [Example 3.0, 1^5-Bromo-9-oxa-4-thia-2,5-diaza-1(2,4)-pyrimidina-3(1,3)-benzenacyclononaphane-4,4-dioxide] | 50 nM |  | 1600 nM |  | 160 nM |  |  |  | 89 nM | 
Nc1cc2cc(c1)S(=O)(=O)NCCCNc1nc(ncc1Br)N2 [Example 1.4, 1^5-Bromo-4-thia-2,5,9-triaza-1(2,4)-pyrimidina-3(1,3)-benzenacyclononaphan-3^5-amine-4,4-dioxides] |  | 200 nM | 400 nM | 400 nM |  |  | 700 nM | < 100 nM | 11 nM | 100 nM
O=[N+]([O-])c1cc2cc(c1)S(=O)(=O)NCCCNc1nc(ncc1Br)N2 [Example 1.5, 1^5-Bromo-3^5-nitro-4-thia-2,5,9-triaza-1(2,4)-pyrimidina-3(1,3)-benzenacyclononaphane-4,4-dioxide hydrochloride] | 28 nM | 600 nM | 900 nM | 900 nM |  |  | 1300 nM | 400 nM | 69 nM | 600 nM
O=S1(=O)NCCC(CO)Nc2nc(ncc2Br)Nc2cccc1c2 (single isomer, unassigned) [Example 1.3 (+) Enantiomer] |  | 2100 nM |  | 900 nM |  | 23 nM | 4000 nM | 1400 nM |  | 4000 nM
O=S1(=O)NCCCCCNc2nc(ncc2Br)Nc2cccc1c2 [Example 1.0, 1^5-Bromo-4-thia-2,5,11-triaza-1(2,4)-pyrimidina-3(1,3)-benzenacycloundecaphane 4,4-dioxides] | 200 nM | 1800 nM | 1100 nM | 1100 nM | 420 nM | 420 nM | 2000 nM | 1300 nM |  | 700 nM
N#Cc1cnc2nc1NCCCNS(=O)(=O)c1cccc(c1)N2 [Example 5.0, 1^5-Cyano-4-thia-2,5,9-triaza-1(2,4)-pyrimidina-3(1,3)-benzenacyclononaphane 4,4-dioxide] | 300 nM |  |  |  |  |  |  |  |  | 
Brc1cnc2nc1NCCCCOc1cccc(c1)N2 [Example 7.1, 1^5-Bromo-4-oxa-2,9-diaza-1(2,4)-pyrimidina-3(1,3)-benzenacyclononaphane] |  |  |  | 4000 nM |  | 2400 nM |  |  |  | 
O=C1NCCCNc2nc(ncc2Br)Nc2cccc(c2)N1 [Example 10.0, 1^5-Bromo-2,4,6,10-tetraaza-1(2,4)-pyrimidina-3(1,3)-benzenacyclodecaphan-5-one] | 360 nM |  | 6000 nM |  | 120 nM |  |  |  |  | 

Second part, led by results:

IC50 [1] | IC50 [2] | IC50 ([4]; Table I, read-out: MCF7 IC50) | IC50 [4, 9] | IC50 [5, 10] | IC50 [5, 11] | IC50 [6] | IC50 [7] | IC50 [8] | SMILES | IC50 [3]
200 nM | 900 nM | 750 nM | 750 nM | 2400 nM | 2400 nM | 900 nM | 700 nM |  | NS(=O)(=O)c1ccc2cc1OCCCCCNc1nc(ncc1Br)N2 [Example 14.11] | 1300 nM
200 nM |  |  |  |  |  |  |  |  | O=S1(=O)NCCC(O)CNc2nc(ncc2Br)Nc2cccc1c2 (stereo not drawn) [Example 14.8] | 
1500 nM | 1200 nM | 1300 nM | 1300 nM | 130 nM | 1500 nM | 1200 nM | 1000 nM |  | O=S1(=O)N[C@H]2CC[C@@H](CC2)Nc2nc(ncc2Br)Nc2cccc1c2 [Example 14.15] | 1300 nM
300 nM |  | > 10000 nM |  | 4400 nM |  |  |  |  | Cc1ccc2cc1S(=O)(=O)NCCCNc1nc(ncc1Br)N2 [Example 14.16] | 
 |  |  |  |  | 5000 nM |  |  |  | CCc1cnc2nc1NCCCCCNS(=O)(=O)c1cccc(c1)N2 [Example 14.2] | 
90 nM | 700 nM | 700 nM | 700 nM | 320 nM | 320 nM | 1700 nM | 500 nM |  | O=S1(=O)NCCCCNc2nc(ncc2Br)Nc2cccc1c2 [Example 14.6] | 300 nM
1700 nM |  | 4000 nM |  | 250 nM | 2000 nM |  |  |  | O=S1(=O)NCCCC[C@@H](CO)Nc2nc(ncc2Br)Nc2cccc1c2 [Example 14.4] | 
 | 100 nM | 1900 nM | 300 nM | 65 nM |  | 400 nM | 100 nM | 190 nM | O=S1(=O)NCCCCNc2nc(ncc2Br)Nc2csc1c2 [Example 14.10] | 
80 nM |  | 2100 nM |  | 30 nM |  |  |  | 370 nM | OCC1CCCOc2cccc(c2)Nc2ncc(Br)c(n2)N1 (stereo not drawn) [Example 14.18] | 
